Laboratory results taken from patent publication US20050181485A1, “Cellulose digesting enzyme gene and utilization of the gene” (priority 2002, published 2005).

Each compound was assayed on cellobiose dehydrogenase. Conditions: not given.
Assay type: biochemical, Coriolus hirsutus

Compared with O=C(O)CN(CCN(CC(=O)O)CC(=O)O)CC(=O)O [EDTA], [N-]=[N+]=[N-].[Na+] [NaN3, sodium azide] is higher in Relative activity: 45% for the first, 46% for the second.

In the case of O=C(O)CN(CCN(CC(=O)O)CC(=O)O)CC(=O)O [EDTA], the “inhibition of the enzyme” value was “weakly inhibited”.
For [N-]=[N+]=[N-].[Na+] [NaN3, sodium azide], the “inhibition of the enzyme” value was “weakly inhibited”.

Same assay, conditions: 1 mM

Compound [Cl-].[Cl-].[Co+2] [CoCl2] has a Relative activity of 53%.

With [Cl][Hg][Cl] [HgCl2] the “inhibition of the enzyme” value was “strongly inhibited”.
With CCCCCCCCCCCCOS(=O)(=O)[O-].[Na+] [SDS] the “inhibition of the enzyme” value was “strongly inhibited”.

Same assay, conditions: 1 mM; incubation at 4° C. overnight

Compared with [Cl][Al]([Cl])[Cl] [AlCl2], [Cl][Cu][Cl] [CuCl2] is higher in Relative activity: 23% for the first, 53% for the second.

Going from [Ba+2].[Cl-].[Cl-] [BaCl2] to [Ca+2].[Cl-].[Cl-] [CaCl2], the Relative activity falls from 71% to 65%.

Going from O=S(=O)([O-])[O-].[Cu+2] [CuSO4] to O=S(=O)([O-])[O-].[Fe+2] [FeSO4], the Relative activity falls from 82% to 0%.

First: [Cl][Hg][Cl] [HgCl2]
Second: [Cl][Mn][Cl] [MnCl2]
The Relative activity of the first is lower: 0% for the first, 35% for the second.

First: [Cl-].[Li+] [LiCl2]
Second: [Cl-].[Cl-].[Mg+2] [MgCl2]
The Relative activity of the first is lower: 45% for the first, 64% for the second.

First: [Cl][Ni][Cl] [NiCl2]
Second: O=S(=O)([O-])[O-].[Zn+2] [ZnSO4]
The Relative activity of the first is lower: 60% for the first, 72% for the second.

First: CCCCCCCCCCCCOS(=O)(=O)[O-].[Na+] [SDS]
Second: [Cl-].[Cl-].[Zn+2] [ZnCl2]
The Relative activity of the first is lower: 0% for the first, 32% for the second.
